This is an account of results in PMC10452110, “Indole-3-Acetamido-Polyamines as Antimicrobial Agents and Antibiotic Adjuvants” (Biomolecules, 2023).

Converted amounts (≈) assume the structure as drawn. Like-named read-outs stand apart in the source and are kept apart here.

The subject of series [1] is Staphylococcus aureus (ATCC 25923). As to the kind of experiment: Intrinsic antimicrobial activity (MIC) against S. aureus. The series is classed as cell-based. The following applies: ATCC25923, S. aureus ATCC 25923, mean (n = 3), read-out: MIC S. a. The protocol: (§1) The susceptibility of bacterial strains Staphylococcus aureus (ATCC 25923), Escherichia coli (ATCC 25922) and Pseudomonas aeruginosa (ATCC 27853) to antibiotics and compounds was determined using previously reported protocols. Additional antimicrobial evaluation against MRSA (ATCC 43300), Klebsiella pneumoniae (ATCC 700603), Acinetobacter baumannii (ATCC 19606), Candida albicans (ATCC 90028) and Cryptococcus neoformans (ATCC 208821) was undertaken at the Community for Open Antimicrobial Drug Discovery at The University of Queensland (Australia) according to their standard protocols, as reported previously.

In series [2] the test system is Pseudomonas aeruginosa (ATCC 27853). As to the kind of experiment: Intrinsic antimicrobial activity (MIC) against P. aeruginosa. To be noted: ATCC27853, P. aeruginosa ATCC 27853, mean (n = 3), read-out: MIC P. a. The series is classed as cell-based. The procedure:
as §1

For series [3], the system named is Candida albicans (ATCC 90028). As to the kind of experiment: Intrinsic antifungal activity (MIC) against C. albicans. The class given is cell-based. To be noted: ATCC90028, C. albicans ATCC 90028, mean (n = 2), read-out: MIC C. a. The protocol: as §1
For the next series, the system named is P. aeruginosa ATCC 27853. Briefly: Enhancement of doxycycline action against P. aeruginosa. The series is classed as cell-based, Pseudomonas aeruginosa. The following applies: doxycycline at 4.5 µM. The procedure:
(§2) Antibiotic enhancer concentrations were determined using previously reported protocols.

The next series concerns MRSA (ATCC 43300). Briefly: Intrinsic antimicrobial activity (MIC) against MRSA. To be noted: Staphylococcus aureus, read-out: MIC MRSA. The series is classed as cell-based. The procedure:
as §1

Series [4] concerns Cryptococcus neoformans (ATCC 208821). As to the kind of experiment: Intrinsic antifungal activity (MIC) against C. neoformans. To be noted: ATCC208821, C. neoformans ATCC 208821, mean (n = 2), read-out: MIC C. n. The class given is cell-based. The procedure:
as §1

A further series relates to E. coli ATCC 25922. Briefly: Enhancement of erythromycin action against E. coli. The series is classed as cell-based, Escherichia coli. To be noted: erythromycin at 10.9 µM. The procedure: as §2
Series [5] has as its system Escherichia coli (ATCC 25922). Briefly: Intrinsic antimicrobial activity (MIC) against E. coli. The series is classed as cell-based. The following applies: ATCC25922, E. coli ATCC 25922, mean (n = 3), read-out: MIC E. c. The procedure:
as §1

A further series in a line: Cytotoxicity assay. To be noted: human; HEK293 cells; mean (n = 2); read-out: Cytotoxicity: concentration of compound at 50% cytotoxicity (IC50). The series is classed as cell-based. The protocol:
Cytotoxicity assays were conducted using the protocols previously reported.

Take `COc1cccc2c(CC(=O)NCCCNCCCCCCNCCCNC(=O)Cc3c[nH]c4c(OC)cccc34)c[nH]c12.O=C(O)C(F)(F)F.O=C(O)C(F)(F)F` [Compound 19b, N^1,N^6-Bis(3-(2-(7-methoxy-1H-indol-3-yl)acetamido)propyl)hexane-1,6-diaminium 2,2,2-trifluoroacetate]: the MIC in [1] was 30 µM; in [2], more than 240 µM; in [3] it was more than 38 µM; with MRSA (ATCC 43300) (MRSA ATCC 43300, mean (n = 2)), less than 0.2 µM; in series [4], less than 0.2 µM; in series [5] it was 240 µM. The “Dox/P. a fold change (ratio between intrinsic MIC of the test compound and combination MIC)” value with P. aeruginosa ATCC 27853 is reported as 1 fold. The “Dox/P. a: concentration required to restore doxycycline activity (combination MIC)” value (“Dox/P. a: concentration required” below) in the series with P. aeruginosa ATCC 27853 is more than 240 µM. For the same molecule, in the series with E. coli ATCC 25922, the “Eryth/E. c: concentration required to restore erythromycin activity (combination MIC)” value (“Eryth/E. c: concentration required” below) amounted to 240 µM. The IC50 in the series “Cytotoxicity assay” was more than 38 µM.

Regarding `COc1cccc2c(CC(=O)NCCCNCCCCCCCCCCNCCCNC(=O)Cc3c[nH]c4c(OC)cccc34)c[nH]c12.O=C(O)C(F)(F)F.O=C(O)C(F)(F)F` [Compound 19e, N^1,N^10-Bis(3-(2-(7-methoxy-1H-indol-3-yl)acetamido)propyl)decane-1,10-diaminium 2,2,2-trifluoroacetate], the MIC in [1] was 28.1 µM; in series [2] it was more than 225 µM; in series [3] it was more than 36 µM; in the series with MRSA (ATCC 43300) (MRSA ATCC 43300, mean (n = 2)), less than 0.2 µM; in series [4] it was less than 0.2 µM; in series [5], more than 225 µM. In addition, the “Dox/P. a fold change (ratio between intrinsic MIC of the test compound and combination MIC)” value in the series with P. aeruginosa ATCC 27853 is reported as more than 1 fold. Further, the “Dox/P. a: concentration required” value in the series with P. aeruginosa ATCC 27853 is on record as 225 µM. Besides, the “Eryth/E. c: concentration required” value with E. coli ATCC 25922 came out at 225 µM. In “Cytotoxicity assay”, the IC50 is more than 36 µM.

In the case of `Cc1cccc2c(CC(=O)NCCCNCCCCCCCCNCCCNC(=O)Cc3c[nH]c4c(C)cccc34)c[nH]c12.O=C(O)C(F)(F)F.O=C(O)C(F)(F)F` [Compound 20d, N^1,N^8-Bis(3-(2-(7-methyl-1H-indol-3-yl)acetamido)propyl)octane-1,8-diaminium 2,2,2-trifluoroacetate], the MIC in series [1] was 30.2 µM; in [2], more than 241 µM; in series [3], 38.6 µM; with MRSA (ATCC 43300) (MRSA ATCC 43300, mean (n = 2)), less than 0.2 µM; in [4], less than 0.2 µM; in series [5], 241 µM. Moreover, the “Dox/P. a fold change (ratio between intrinsic MIC of the test compound and combination MIC)” value in the series on P. aeruginosa ATCC 27853 is given as 1 fold. In addition, the “Dox/P. a: concentration required” value with P. aeruginosa ATCC 27853 is more than 241 µM. Moreover, in the series on E. coli ATCC 25922, the “Eryth/E. c: concentration required” value is on record as 241 µM. In “Cytotoxicity assay”, the IC50 is more than 39 µM.

On to `O=C(N[C@H](CO)[C@H](O)c1ccc([N+](=O)[O-])cc1)C(Cl)Cl` [chloramphenicol, reference compound], for which the MIC in [1] was 1.5 to 3 µM (≈ 0.485 to 0.969 µg/mL).

For `OC(Cn1cncn1)(Cn1cncn1)c1ccc(F)cc1F` [fluconazole, reference compound], the results for the minimal inhibitory concentration (MIC) in [3] and in [4] were 0.4 µM (≈ 0.123 µg/mL) and 26 µM (≈ 7.96 µg/mL), respectively.

As for `[H]/N=C(/N)N[C@H]1[C@H](O)[C@@H](O)[C@H](O[C@@H]2O[C@@H](C)[C@](O)(C=O)[C@H]2O[C@@H]2O[C@@H](CO)[C@H](O)[C@@H](O)[C@@H]2NC)[C@@H](N/C(N)=N\[H])[C@@H]1O` [streptomycin, reference compound], the minimal inhibitory concentration (MIC) in series [1], in series [2] and in series [5] was 21.5 µM (≈ 12.5 µg/mL) each time.

Turning to `CC/C(=C(\c1ccccc1)c1ccc(OCCN(C)C)cc1)c1ccccc1` [tamoxifen, reference compound], the IC50 in the series “Cytotoxicity assay” is 24 µM.

For the molecule `CN[C@H](CC(C)C)C(=O)N[C@H]1C(=O)N[C@@H](CC(N)=O)C(=O)N[C@H]2C(=O)N[C@H]3C(=O)N[C@H](C(=O)N[C@H](C(=O)O)c4cc(O)cc(O)c4-c4cc3ccc4O)[C@H](O)c3ccc(c(Cl)c3)Oc3cc2cc(c3O[C@@H]2O[C@H](CO)[C@@H](O)[C@H](O)[C@H]2O[C@H]2C[C@](C)(N)[C@H](O)[C@H](C)O2)Oc2ccc(cc2Cl)[C@H]1O` [vancomycin, reference compound], the minimal inhibitory concentration (MIC) in the series with MRSA (ATCC 43300) was 0.7 µM (≈ 1.01 µg/mL).
